Data reported in publication PMC2882332, “Species Used for Drug Testing Reveal Different Inhibition Susceptibility for 17beta-Hydroxysteroid Dehydrogenase Type 1” (PLoS ONE, 2010).
Read-outs that look alike come from different tables or passages of the source.

Experiments:
[1] = molecular target: T1, mouse 17β-HSD 1 (Mus musculus, UniProt P51656); test: In vitro enzymatic activity, recombinant mouse 17β-HSD 1; type: biochemical; details: 2 µM compound, 15 nM 3H-estrone, read-out: Observed % inhibition
T1 construct: Full length cDNAs of several 17β-HSDs type 1 originating from different species were cloned; made in house; host or cells: E.coli BL21 DE3 Codon Plus RP
T1 sequence (P51656 1-344): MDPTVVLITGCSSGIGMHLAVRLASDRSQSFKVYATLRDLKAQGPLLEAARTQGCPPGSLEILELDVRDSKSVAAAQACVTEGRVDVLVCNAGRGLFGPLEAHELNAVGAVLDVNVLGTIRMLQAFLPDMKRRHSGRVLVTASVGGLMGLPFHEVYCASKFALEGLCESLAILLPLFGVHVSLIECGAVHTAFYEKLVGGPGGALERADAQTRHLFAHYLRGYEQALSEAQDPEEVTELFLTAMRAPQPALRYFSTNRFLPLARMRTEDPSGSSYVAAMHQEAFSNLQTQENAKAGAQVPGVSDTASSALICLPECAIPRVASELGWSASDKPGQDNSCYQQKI
Text: (§1) Full length cDNAs of several 17β-HSDs type 1 originating from different species were cloned either into the pQE30 vector (human 17β-HSD 1, coding for acc. no. NP_000404) for expression as His-Tag protein or into a modified pGex-2T vector [63] (mouse 17β-HSD 1, acc. no. NP_034605; rat 17β-HSD 1, acc. no. NP_036983; marmoset 17β-HSD 1, acc. no. AAG01115; porcine 17β-HSD 1, acc. no. NP_001121944) for expression as GST-fusion proteins. The marmoset 17β-HSD 1 enzyme sequence was updated by the missing N-terminal part (AF272013) and the new porcine sequence was submitted to GenBank (NP_001121944). Human 17β-HSDs 2, 4, 5 (AKR1C3, the latter kindly provided by Dr. T. Penning) and 7 were all cloned into the modified pGEX-2T vector. For 17β-HSD 4 only the SDR-domain converting the steroids was subcloned. Plasmids were transformed into E.coli BL21 DE3 Codon Plus RP (Stratagene) and enzyme expression was induced by 0.5 mM IPTG. After 4h incubation at 37°C with continuous shaking bacteria were pelleted by centrifugation at 10.000×g. Pellets were stored until use at −20°C.
(§2) The bacteria containing recombinant enzymes were resuspended in PBS and enzymatic assays were performed in 100 mM sodium phosphate buffer at pH 6.6 for the reductive reaction and at pH 7.7 for the oxidative reaction. […] All substrates were purchased from NEN/Perkin Elmer. The cofactors NADPH (Sigma; for reductive reactions) and NAD^+ (Serva, for oxidative reactions) were used at final concentrations of 0.5 mg/ml. […] The incubation at 37°C was stopped with 0.21 M ascorbic acid in methanol∶acetic acid 99∶1 (v∶v) after the time needed to convert approximately 30% of the substrate in a control assay with 1% DMSO, without inhibitor candidates. […] The solvent used was acetonitrile∶water (43∶57, v∶v) at a flow rate of 1 ml/min. Radioactivity was detected by online-scintillation counting (Berthold LB506D) after mixing with ReadyFlowIII (Beckman). Conversion was calculated from integration of substrate and product peaks. […] All assays were run in duplicates of two independent experiments and mean values are reported. The IC50 values were determined by the One Ligand Binding model of SigmaPlot kinetics module.

[2] = molecular target: T2, human 17β-HSD 2 (Homo sapiens, UniProt P37059); test: In vitro enzymatic activity, recombinant human 17β-HSD 2 (estradiol oxidation); type: biochemical; details: 2 µM compound, 21 nM 3H-estradiol, NAD+, pH 7.7, read-out: Observed % inhibition
T2 construct: made in house; host or cells: E.coli BL21 DE3 Codon Plus RP
T2 sequence (P37059 1-387): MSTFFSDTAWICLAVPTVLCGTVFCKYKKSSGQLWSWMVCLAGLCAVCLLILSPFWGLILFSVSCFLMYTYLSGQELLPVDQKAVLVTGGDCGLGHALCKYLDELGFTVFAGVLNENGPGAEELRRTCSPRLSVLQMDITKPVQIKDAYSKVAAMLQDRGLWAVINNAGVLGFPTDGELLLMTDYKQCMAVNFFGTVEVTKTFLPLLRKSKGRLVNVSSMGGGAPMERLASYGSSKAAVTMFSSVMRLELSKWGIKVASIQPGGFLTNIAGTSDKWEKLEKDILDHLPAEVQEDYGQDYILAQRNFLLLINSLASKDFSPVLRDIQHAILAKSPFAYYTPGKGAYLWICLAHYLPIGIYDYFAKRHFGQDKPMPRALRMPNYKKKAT
Text: as §1, §2

[3] = molecular target: T3, rat 17β-HSD 1 (Rattus norvegicus, UniProt P51657); test: In vitro enzymatic activity, recombinant rat 17β-HSD 1; type: biochemical; details: 2 µM compound, 15 nM 3H-estrone, read-out: Observed % inhibition
T3 construct: Full length cDNAs of several 17β-HSDs type 1 originating from different species were cloned; made in house; host or cells: E.coli BL21 DE3 Codon Plus RP
T3 sequence (P51657 1-344): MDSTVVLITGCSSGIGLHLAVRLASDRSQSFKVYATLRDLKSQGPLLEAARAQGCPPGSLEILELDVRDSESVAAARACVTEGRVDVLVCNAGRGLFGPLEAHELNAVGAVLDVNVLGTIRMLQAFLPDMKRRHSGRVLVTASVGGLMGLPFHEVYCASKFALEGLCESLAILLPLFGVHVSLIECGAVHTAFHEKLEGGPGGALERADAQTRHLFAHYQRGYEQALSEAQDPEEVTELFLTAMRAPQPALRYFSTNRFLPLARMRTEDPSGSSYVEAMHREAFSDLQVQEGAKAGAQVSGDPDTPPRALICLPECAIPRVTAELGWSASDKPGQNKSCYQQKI
Text: as §1, §2

[4] = molecular target: T4, porcine 17β-HSD 1 (Sus scrofa, UniProt B2X0A4); test: In vitro enzymatic activity, recombinant porcine 17β-HSD 1; type: biochemical, pig; details: for IC50: Pig 17β-HSD 1, 0.005 µM to 5 µM inhibitor; for inhibition at 2 µM: read-out: Observed % inhibition
T4 sequence (B2X0A4 1-321): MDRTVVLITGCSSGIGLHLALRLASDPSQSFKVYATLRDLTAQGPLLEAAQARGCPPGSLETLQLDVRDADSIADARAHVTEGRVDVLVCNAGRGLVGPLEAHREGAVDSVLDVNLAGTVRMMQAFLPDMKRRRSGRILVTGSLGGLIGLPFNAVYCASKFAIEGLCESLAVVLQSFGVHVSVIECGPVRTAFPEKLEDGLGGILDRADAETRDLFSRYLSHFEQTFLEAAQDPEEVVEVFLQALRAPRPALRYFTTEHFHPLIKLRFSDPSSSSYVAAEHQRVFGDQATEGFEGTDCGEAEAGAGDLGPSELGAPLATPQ
Text: as §1, §2

[5] = pig 17β-HSD 1, 2 µM compound, 15 nM 3H-estrone

SMILES | inhibition at 2 µM [1] [%] | inhibition at 2 µM [2] [%] | inhibition at 2 µM [3] [%] | IC50 [4] [µM] | inhibition at 2 µM [4, 5] [%] | inhibition at 2 µM [4] [%]
C[C@]12CC[C@@H]3c4ccc(O)cc4CC[C@H]3[C@@H]1[C@@H](CNC(=O)c1ccc(F)cc1)CC2=O [Compound 1] | 27 | -4.3 | 47.1 |  |  | 
C[C@]12CC[C@@H]3c4ccc(O)cc4CC[C@H]3[C@@H]1[C@@H](CCCC(=O)N1CCOCC1)CC2=O [Compound 2] | -1.5 | 16.7 | 40.3 | 0.457 | 67 | 
Cc1cnc(NC(=O)CC[C@@H]2CC(=O)[C@@]3(C)CC[C@@H]4c5ccc(O)cc5CC[C@H]4[C@H]23)s1 [Compound 3] | 27 | 18.6 | 5.3 | 0.00034 | 105 | 
COc1ccc(-c2cn(CCC[C@H]3CC(=O)[C@@]4(C)CC[C@@H]5c6ccc(O)cc6CC[C@H]5[C@H]34)nn2)cc1 [Compound 4] | 18.5 | -0.3 | 19.4 |  |  | 66.2
C[C@]12CC[C@@H]3c4ccc(O)cc4CC[C@H]3[C@@H]1C[C@H](CC(=O)NCc1cccnc1)C2=O [Compound 5, reference compound] | 3.2 | -3.2 | -2.4 |  | 95.7 | 
